Data from PMC6018403 (Frontiers in Pharmacology, 2018).
Read-outs that look alike come from different tables or passages of the source.

Assay: Multi-component pharmacokinetic study of GQD, GQD-GC and single herb extracts in rats (plasma, LC/MS/MS)
Format: in vivo, Sprague-Dawley rats
Experimental: Male Sprague-Dawley rats (220–250 g) were used for PK study, and the details were described in Supplemental Data. All procedures were in accordance with the National Institutes of Health Guide for the Care and Use of Laboratory Animals.
For PK study of GQD and its component herbs, rats were randomly divided into six groups (n = 10 for each group) before oral administration.
All blood samples were immediately centrifuged at 6,000 rpm (4°C) for 20 min to obtain plasma. The plasma samples were stored at −80°C.
A Finnigan TSQ Quantum triple quadrupole mass spectrometer was connected to a Surveyor HPLC via ESI interface (ThermoFisher). High purity nitrogen was used as the sheath and auxiliary gas; Ultra-high purity argon was used as the collision gas (1.5 mTorr). Q1 and Q3 quadrupoles were set at unit resolution. […] The column temperature was 40°C. The mobile phase consisted of acetonitrile containing 2% (v/v) methanol (A) and water containing 0.1% (v/v) formic acid (B). […] An aliquot of 5 μL was injected for analysis. UV spectra were obtained by scanning from 200 to 400 nm. The mass spectrometer was operated in the (+)-ESI mode. The optimized parameters were as follows: sheath gas (N2), 50 arb; auxiliary gas (N2), 5 arb; spray voltage, 4.0 kV; capillary temperature, 330°C; collision energy, see Table S1. Analytes were detected in the selected reaction monitoring (SRM) mode. Data were processed by Xcalibur 2.0.7 software (ThermoFisher).
LC/MS/MS calibration and quantitation data were processed with Xcalibur 2.0.7 software (ThermoFisher). The maximal plasma concentrations (Cmax) and their time of occurrence (Tmax) were obtained directly from the measured data. Other pharmacokinetic parameters were calculated by non-compartment or compartment models using WinNonlin® software (v6.1, Pharsight). Unless otherwise stated, results were expressed as the mean ± SD. Statistical significance in differences of the means was determined by Student's t–test, with a significance level of P < 0.05.
Herbal materials and extracts.
The four component herbs, Puerariae Lobatae Radix (Ge-Gen, GG), Scutellariae Radix (Huang-Qin, HQ), Coptidis Rhizoma (Huang-Lian, HL), and Glycyrrhizae Radix et Rhizoma Praeparata cum Melle (Gan-Cao, GC) were purchased from Tianheng Pharmacy. GQD was prepared by decocting the four component herbs […]
pre-extraction of Ge-Gen using 200 mL of water for 0.5 h. The decoctions were combined, filtered, and concentrated in vacuum at 50 °C. GQD-GC was prepared using the same procedure, except that Gan-Cao was removed from the formula. Final concentration of the GQD-GC extract was equivalent to 1.0 g of the crude drugs per mL. For single herb extracts, the herbs were decocted in 8-fold volume of water for […]
Final concentrations of the extracts were 1.0 g/mL for Ge-Gen, and 0.5 g/mL for Huang-Qin, Huang-Lian and […]
For pharmacokinetic study, Male Sprague-Dawley rats (220-250 g) were obtained from the Laboratory Animal Center of Peking University Health Science Center. The […]
The rats had free access to tap water and soy-free custom diet (Ke’ao Xieli Co.). All procedures were in accordance with the National Institutes of Health Guide for the Care and Use of Laboratory Animals […]
Experimental details for the PK study
1. Preparation of internal standard solution, calibration standard solutions, and quality control solutions […]
internal standard solution. Reference standard compounds were dissolved in the internal standard solution to prepare individual stock solutions (1.0 mg/mL). These […]
each compound. The standard solution was then serially diluted to obtain calibration […]
Quality control stock solutions were prepared at three concentration levels as high QC (HQC), middle QC (MQC), and low QC (LQC), based on linear ranges of the analytes.
2.1. Sample preparation for pharmacokinetic study
The calibration standard and quality control solutions for pharmacokinetic study were […]

[1] = male, Sprague-Dawley, rat, plasma, po, 3.54 g/kg, HQ (Huang-Qin) group: rats, oral extract 3.54 g/kg, plasma, read-out: AUClast
[2] = male, Sprague-Dawley, rat, plasma, po, 16.5 g/kg, GQD-GC group (GQD without Gan-Cao): rats, oral 16.5 g/kg, plasma, read-out: AUClast
[3] = male, Sprague-Dawley, rat, plasma, po, 18.9 g/kg, GQD group: rats, oral GQD extract 18.9 g/kg, plasma, read-out: AUClast
[4] = male, Sprague-Dawley, rat, GQD group: rats, oral GQD extract 18.9 g/kg, plasma, read-out: Cmax
[5] = male, Sprague-Dawley, rat, GQD group: rats, oral GQD extract 18.9 g/kg, plasma, read-out: T1/2 (converted)
[6] = male, Sprague-Dawley, rat, GQD group: rats, oral GQD extract 18.9 g/kg, plasma, read-out: Tmax
[7] = male, Sprague-Dawley, rat, GQD-GC group (GQD without Gan-Cao): rats, oral 16.5 g/kg, plasma, read-out: Cmax
[8] = male, Sprague-Dawley, rat, GQD-GC group (GQD without Gan-Cao): rats, oral 16.5 g/kg, plasma, read-out: T1/2 (converted)
[9] = male, Sprague-Dawley, rat, GQD-GC group (GQD without Gan-Cao): rats, oral 16.5 g/kg, plasma, read-out: Tmax
[10] = male, Sprague-Dawley, rat, HQ (Huang-Qin) group: rats, oral extract 3.54 g/kg, plasma, read-out: Cmax
[11] = male, Sprague-Dawley, rat, HQ (Huang-Qin) group: rats, oral extract 3.54 g/kg, plasma, read-out: T1/2 (converted)
[12] = male, Sprague-Dawley, rat, HQ (Huang-Qin) group: rats, oral extract 3.54 g/kg, plasma, read-out: Tmax
[13] = male, Sprague-Dawley, rat, plasma, po, 18.9 g/kg, GQD group: rats, oral GQD 18.9 g/kg (1.5-fold of clinical dosage), plasma, read-out: AUClast
[14] = male, Sprague-Dawley, rat, plasma, po, 2.36 g/kg, GC (Gan-Cao) group: rats, oral extract 2.36 g/kg, plasma, read-out: AUClast
[15] = male, Sprague-Dawley, rat, GC (Gan-Cao) group: rats, oral extract 2.36 g/kg, plasma, read-out: Cmax
[16] = male, Sprague-Dawley, rat, GC (Gan-Cao) group: rats, oral extract 2.36 g/kg, plasma, read-out: T1/2 (converted)
[17] = male, Sprague-Dawley, rat, GC (Gan-Cao) group: rats, oral extract 2.36 g/kg, plasma, read-out: Tmax
[18] = male, Sprague-Dawley, rat, in vivo, po, 2.36 g/kg
[19] = male, Sprague-Dawley, rat, in vivo, po, 18.9 g/kg

| SMILES | AUC(0-t) [1] [ng·h/mL] | AUC(0-t) [2] [ng·h/mL] | AUC(0-t) [3] [ng·h/mL] | Cmax [4] [ng/mL] | half-life [5] [h] | Tmax [6] [h] | Cmax [7] [ng/mL] | half-life [8] [h] | Tmax [9] [h] | Cmax [10] [ng/mL] | half-life [11] [h] | Tmax [12] [h] | further results |
| --- | --- | --- | --- | --- | --- | --- | --- | --- | --- | --- | --- | --- | --- |
| COc1c(O)cc(O)c2c(=O)cc(-c3ccccc3)oc12 [Compound 8, wogonin] | 473 ± 34.3 | 156 ± 73.4 | 282 ± 11.3 | 12.9 ± 7.39 | 6.63 ± 2.38 | 7.89 ± 0.99 | 10.2 ± 6.81 | 5.64 ± 1.09 | 8 ± 2.12 | 38 ± 7.22 | 5.45 ± 1.22 | 8.02 ± 2.48 |  |
| COc1c(CC=C(C)C)c(O)cc2oc(=O)c(-c3ccc(O)cc3O)cc12 [Compound 30, glycycoumarin] |  |  | 37.9 ± 29.9 | 7.47 ± 8.1 | 11.3 ± 3.38 | 2 ± 1.24 |  |  |  |  |  |  | AUC (Gan-Cao group: rats, oral 2.36 g/kg, plasma): not detected; AUC(0-t) [13]: 37.9 ± 29.9 ng·h/mL; plasma concentrations, effect of GQD compared with Gan-Cao (rats, oral): improved |
| COc1c(O)c(O[C@@H]2O[C@H](C(=O)O)[C@@H](O)[C@H](O)[C@H]2O)cc2oc(-c3ccccc3)cc(=O)c12 [Compound 38, lateriflorein 7-O-glucuronide] | 1170 ± 342 | 599 ± 215 | 700 ± 77 | 48.8 ± 3.88 | 4.33 ± 3.23 | 0.44 ± 3.87 | 59.4 ± 5.34 | 2.85 ± 0.54 | 0.34 ± 0.07 | 213 ± 34.3 | 1.58 ± 0.14 | 0.31 ± 0.03 | AUC(0-t) [13]: > 700 ng·h/mL |
| COc1ccc(-c2coc3cc(O)ccc3c2=O)cc1 [Compound 32, formononetin] |  |  | 94.2 ± 32.6 | 8.62 ± 0.39 | 23.8 ± 16.8 | 2.92 ± 0.08 |  |  |  |  |  |  | AUC(0-t) [14]: 19.9 ± 7.99 ng·h/mL; Cmax [15]: 1.71 ± 1 ng/mL; half-life [16]: 3.22 ± 0.87 h; Tmax [17]: 0.33 ± 0.13 h; plasma concentrations, effect of GQD compared with Gan-Cao (rats, oral): improved |
| O=c1cc(-c2ccccc2)oc2cc(O)c(O)c(O)c12 [Compound 12, baicalein] | 19.5 ± 11.2 |  | 108 ± 47 | 11.1 ± 0.66 | 7.57 ± 0.21 | 0.42 ± 0.03 |  |  |  | 3.46 ± 0.34 | 5.99 ± 1.23 | 1 ± 0.64 |  |
| O=C1C[C@@H](c2ccc(O)cc2)Oc2cc(O)ccc21 [Compound 29, liquiritigenin] |  |  |  |  |  |  |  |  |  |  |  |  | Cmax [18]: 22.63 ± 0.22 ng/mL; Tmax [18]: 1 ± 2.34 h; half-life [18]: 9.84 ± 3.52 h; AUC(0-t) (male, Sprague-Dawley, rat, in vivo, po, 2.36 g/kg, AUClast): 75.4 ± 81.1 ng·h/mL; Cmax [19]: 27.4 ± 9.97 ng/mL; Tmax [19]: 1 ± 0.93 h; half-life [19]: 11.2 ± 7.69 h; AUC(0-t) (male, Sprague-Dawley, rat, in vivo, po, 18.9 g/kg, AUClast): 153 ± 9.34 ng·h/mL |
| CC1(C)[C@@H](O)CC[C@]2(C)[C@H]3C(=O)C=C4[C@@H]5C[C@@](C)(C(=O)O)CC[C@]5(C)CC[C@@]4(C)[C@]3(C)CC[C@@H]12 [Compound 40, glycyrrhetinic acid] |  |  | 8480 ± 1300 |  | 7.96 ± 2.56 |  |  |  |  |  |  |  | Cmax (GQD group: rats, oral GQD extract 18.9 g/kg, plasma): 371.14 ± 66.69 ng/mL; AUC(0-t) [14]: 9630 ± 778 ng·h/mL; Cmax [15]: 359 ± 37.8 ng/mL; half-life [16]: 6.87 ± 2.47 h; Tmax [17]: 13.4 ± 0.78 h |
| COc1ccc(-c2coc3c(C4OC(COC5OCC(O)(CO)C5O)C(O)C(O)C4O)c(O)ccc3c2=O)cc1 (stereo not shown) [Compound 5, formononetin 8-C-apiofuranosyl(1,6)glucoside] |  | 26 ± 7.29 | 168 ± 83.3 | 16 ± 5.44 | 7.03 ± 2.31 | 0.76 ± 3.76 | 6.87 ± 2.05 | 5.23 ± 1.35 | 0.52 ± 0.65 |  |  |  | AUC(0-t) (male, Sprague-Dawley, rat, plasma, po, 9.45 g/kg, GG (Ge-Gen) group: rats, oral extract 9.45 g/kg, plasma, read-out: AUClast): 85 ± 19.2 ng·h/mL; Cmax (male, Sprague-Dawley, rat, GG (Ge-Gen) group: rats, oral extract 9.45 g/kg, plasma, read-out: Cmax): 18.4 ± 5.1 ng/mL; half-life (male, Sprague-Dawley, rat, GG (Ge-Gen) group: rats, oral extract 9.45 g/kg, plasma, read-out: T1/2 (converted)): 8.98 ± 2.34 h; Tmax (male, Sprague-Dawley, rat, GG (Ge-Gen) group: rats, oral extract 9.45 g/kg, plasma, read-out: Tmax): 0.39 ± 0.17 h; bioavailability in the GQD group compared with the Ge-Gen group (rats, oral): higher |
| O=C(O)[C@H]1O[C@@H](Oc2cc(O)c3c(=O)cc(-c4ccccc4)oc3c2O)[C@H](O)[C@@H](O)[C@@H]1O [Compound 14, norwogonin 7-O-glucuronide] | 11000 ± 2530 | 6030 ± 272 | 5270 ± 987 | 379 ± 98.5 | 4.88 ± 2.87 | 7.05 ± 1.23 | 359 ± 34.3 | 4.28 ± 1.63 | 6.17 ± 8.34 | 547 ± 73.8 | 5.1 ± 0.33 | 7.36 ± 0.08 | AUC(0-t) (male, Sprague-Dawley, rat, plasma, po, 3.54 g/kg, Huang-Qin group: rats, oral 3.54 g/kg, plasma, read-out: AUClast): 11000 ± 2530 ng·h/mL; decrease of Cmax in the GQD group compared with the Huang-Qin group (rats, oral, GQD vs Huang-Qin): at least 30% |
